The source made the active and inactive calls. The calls are words filed in the database; no cut-off is given here.

Test [1] has as its target T1, Cannabinoid receptor 2 (Homo sapiens, UniProt P34972). Nature of the test: Inverse agonist activity at human recombinant cannabinoid CB2 receptor expressed in HEK cells transfected with CNG assessed as increase in cAMP level measured up to 1 hr by ACTOne membrane potential dye based assay. In kind it is functional, cell-based.
Test [2] has as its system IMhu. Nature of the test: Effect on LPS-stimulated microglia polarization in human IMhu cells assessed as increase in CD206 expression at 35 uM after 24 hrs by cell polarization assay. In kind it is functional, cell-based.
Test [3] has as its target T2, Cannabinoid receptor 1 (Homo sapiens, UniProt P21554). Kind of test: Displacement of [3H]-CP55940 from human recombinant cannabinoid CB1 receptor expressed in HEK cell membranes incubated for 1.5 hrs by liquid scintillation counting method. Also noted: species or system Cell membrane. In general terms: Displacement assays read how much labelled ligand stays bound in the presence of the test substance.

Test [4] deals with IMhu. Nature of the test: Induction of morphological changes in LPS-induced human IMhu cells assessed as ramified cell at 10 uM after 24 hrs by DAPI/Phalloidin staining based fluorescence microscopic analysis. In kind it is functional.
In test [5] the target is T2, Cannabinoid receptor 1. Nature of the test: Inverse agonist activity at cannabinoid CB1 receptor in human U2OS cells assessed as induction of beta-arrestin recruitment using CCF4/AM as substrate preincubated for 5 hrs followed by substrate addition and measured after 2 hrs by Tango assay. In kind it is cell-based. As to conditions: time 7.0 hrs. In general terms: Recruitment of arrestin is a read-out of receptor activation apart from second messengers.

Test [6] addresses T1, Cannabinoid receptor 2. Nature of the test: Displacement of [3H]-CP55940 from human recombinant cannabinoid CB2 receptor expressed in HEK cell membranes incubated for 1.5 hrs by liquid scintillation counting method. Also noted: species or system Cell membrane.
Test [7] has as its system IMhu. Nature of the test: Effect on LPS-stimulated microglia polarization in human IMhu cells assessed as decrease in CD16 expression at 35 uM after 24 hrs by cell polarization assay. In kind it is functional, cell-based.
For test [8], the system named is IMhu. Kind of test: Inhibition of cell migration in LPS-induced human IMhu cells at 10 uM after 24 hrs by scratch assay. In kind it is functional.
Test [9] has as its system C8-B4. Nature of the test: Effect on LPS-stimulated microglia polarization in mouse C8-B4 cells assessed as decrease in CD16/32 expression at 20 uM after 24 hrs by cell polarization assay. In kind it is functional, cell-based.
Test [10] addresses T2, Cannabinoid receptor 1. Kind of test: Inverse agonist activity at human recombinant cannabinoid CB1 receptor expressed in HEK cells transfected with CNG assessed as increase in cAMP level measured up to 1 hr by ACTOne membrane potential dye based assay relative to control. In kind it is functional, cell-based. As to conditions: time hrs <=1. A general note: cAMP levels reflect the balance of adenylyl cyclase and phosphodiesterase activity.

The subject of test [11] is C8-B4. Nature of the test: Effect on LPS-stimulated microglia polarization in mouse C8-B4 cells assessed as increase in CD206 expression at 20 uM after 24 hrs by cell polarization assay. In kind it is functional, cell-based.
In test [12] the target is T1, Cannabinoid receptor 2. Kind of test: Inverse agonist activity at cannabinoid CB2 receptor in human U2OS cells assessed as emission ratio using CCF4/AM as substrate preincubated for 5 hrs followed by substrate addition and measured after 2 hrs by Tango assay. In kind it is cell-based. As to conditions: filed as inverse agonist, time 7.0 hrs.
For test [13], the target named is T2, Cannabinoid receptor 1. Nature of the test: Inverse agonist activity at cannabinoid CB1 receptor in human U2OS cells assessed as emission ratio using CCF4/AM as substrate preincubated for 5 hrs followed by substrate addition and measured after 2 hrs by Tango assay. In kind it is cell-based. As to conditions: time 7.0 hrs.
Test [14] addresses T1, Cannabinoid receptor 2. Nature of the test: Inverse agonist activity at human recombinant cannabinoid CB2 receptor expressed in HEK cells transfected with CNG assessed as increase in cAMP level measured up to 1 hr by ACTOne membrane potential dye based assay relative to control. In kind it is functional, cell-based. As to conditions: filed as inverse agonist, time hrs <=1.

In test [15] the test system is C8-B4. Nature of the test: Effect on LPS-stimulated microglia polarization in mouse C8-B4 cells assessed as increase in CD204 expression at 20 uM after 24 hrs by cell polarization assay. In kind it is functional, cell-based.
For the next test, the species on record is Homo sapiens. Nature of the test: Selectivity ratio of Ki for displacement of [3H]-CP55940 from human recombinant cannabinoid CB1 receptor expressed in HEK cell membranes to displacement of [3H]-CP55940 from human recombinant cannabinoid CB2 receptor expressed in HEK cell membranes.
In test [16] the target is T2, Cannabinoid receptor 1. Kind of test: Inverse agonist activity at human recombinant cannabinoid CB1 receptor expressed in HEK cells transfected with CNG assessed as increase in cAMP level measured up to 1 hr by ACTOne membrane potential dye based assay. As to conditions: time hrs <=1. In kind it is functional, cell-based.
Test [17] relates to IMhu. Nature of the test: Cytoprotective activity in human IMhu cells assessed as reduction in LPS-induced ROS generation at 10 uM after 50 to 1440 mins by fluorescence based assay. In kind it is functional, cell-based. As to conditions: time 50-1440 min.
Test [18] has as its system C8-B4. Kind of test: Effect on LPS-stimulated microglia polarization in mouse C8-B4 cells assessed as decrease in CD68 expression at 20 uM after 24 hrs by cell polarization assay. In kind it is functional, cell-based.
Test [19] deals with IMhu. Nature of the test: Induction of morphological changes in LPS-induced human IMhu cells assessed as small cell body at 10 uM after 24 hrs by DAPI/Phalloidin staining based fluorescence microscopic analysis. In kind it is functional.
The subject of test [20] is IMhu. Kind of test: Effect on LPS-stimulated microglia polarization in human IMhu cells assessed as increase in CD204 expression at 35 uM after 24 hrs by cell polarization assay. In kind it is functional, cell-based.
In test [21] the test system is IMhu. Kind of test: Effect on LPS-stimulated microglia polarization in human IMhu cells assessed as decrease in CD68 expression at 35 uM after 24 hrs by cell polarization assay. In kind it is functional, cell-based.
In test [22] the test system is IMhu. Nature of the test: Induction of morphological changes in LPS-induced human IMhu cells assessed as elongated projection formation at 10 uM after 24 hrs by DAPI/Phalloidin staining based fluorescence microscopic analysis. In kind it is functional.
The target of test [23] is T1, Cannabinoid receptor 2. Kind of test: Inverse agonist activity at cannabinoid CB2 receptor in human U2OS cells assessed as induction of beta-arrestin recruitment using CCF4/AM as substrate preincubated for 5 hrs followed by substrate addition and measured after 2 hrs by Tango assay. In kind it is cell-based.

T2 sequence (P21554 whole entry): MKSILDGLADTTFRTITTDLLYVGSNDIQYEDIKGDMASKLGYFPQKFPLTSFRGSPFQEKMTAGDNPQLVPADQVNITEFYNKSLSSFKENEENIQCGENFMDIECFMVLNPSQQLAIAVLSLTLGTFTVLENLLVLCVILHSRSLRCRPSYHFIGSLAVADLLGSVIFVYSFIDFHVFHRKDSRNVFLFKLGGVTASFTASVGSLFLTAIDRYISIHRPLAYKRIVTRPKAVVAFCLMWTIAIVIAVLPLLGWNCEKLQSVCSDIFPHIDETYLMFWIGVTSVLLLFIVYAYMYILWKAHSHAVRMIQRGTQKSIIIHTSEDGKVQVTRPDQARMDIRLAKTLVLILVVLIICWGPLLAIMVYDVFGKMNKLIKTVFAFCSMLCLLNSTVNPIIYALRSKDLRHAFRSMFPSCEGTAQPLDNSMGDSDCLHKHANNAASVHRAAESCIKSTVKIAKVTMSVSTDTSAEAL
T1 sequence (P34972 whole entry): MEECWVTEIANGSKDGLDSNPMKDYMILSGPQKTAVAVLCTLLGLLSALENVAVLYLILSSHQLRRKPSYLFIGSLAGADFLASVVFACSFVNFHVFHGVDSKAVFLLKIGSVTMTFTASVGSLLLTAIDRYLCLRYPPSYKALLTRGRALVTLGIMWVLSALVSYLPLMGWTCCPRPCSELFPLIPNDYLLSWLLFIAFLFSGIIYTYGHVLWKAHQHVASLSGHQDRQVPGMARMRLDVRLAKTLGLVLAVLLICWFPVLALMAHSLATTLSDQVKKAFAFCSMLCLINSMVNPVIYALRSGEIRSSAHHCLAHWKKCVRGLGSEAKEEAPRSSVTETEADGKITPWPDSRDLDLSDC

On to `O=C(c1cc(O)c(-c2cccc(C(F)(F)F)c2)c(O)c1)c1cccs1`, for which the EC50 on Cannabinoid receptor 2 [1] was 0.0389 µM; on Cannabinoid receptor 2 [23], 8.51 µM. In addition, the result with IMhu [2], with IMhu [4], with IMhu [7], in the test with C8-B4 [9], with C8-B4 [11] and in the test on C8-B4 [15] was Active. In addition, the result in the test on IMhu [17], with C8-B4 [18], in the test on IMhu [19], in the test on IMhu [20], in the test with IMhu [21] and in the test with IMhu [22] was Active. In addition, the Ki on Cannabinoid receptor 1 [3] was more than 10 µM; at Cannabinoid receptor 2 [6], 0.154 µM. In addition, the pEC50 result on Cannabinoid receptor 1 [5] and at Cannabinoid receptor 1 [16] was “inactive” in each case. The inhibition result with IMhu [8] is “Active”. On Cannabinoid receptor 1 [10], the Emax result was “inactive”. Further, the Ratio at Cannabinoid receptor 2 [12] turned out to be 1.19. The Ratio result on Cannabinoid receptor 1 [13] is “inactive”. Also, the Emax at Cannabinoid receptor 2 [14] came to 57.2%. Besides, in the test listed under Homo sapiens, the Ratio Ki is more than 64.9.

The term EC50 denotes the midpoint of the concentration-response curve. As a reminder, the Ki is a dissociation constant, usually derived from enzyme kinetics or from competition with a known ligand. In general, Emax refers to the maximal effect, on the per cent scale that the assay sets.
